One data set relates to Artemia salina. As to the kind of experiment: Toxicity in Artemia salina. Format: organism-based. The conditions noted are these: in vivo.
The subject of a further data set is A549. As to the kind of experiment: Cytotoxicity against human A549 cells. Format: functional. To be noted: read-out: ED50 (the source's name).
A further data set relates to HT-29. As to the kind of experiment: Cytotoxicity against human HT-29 cells. In kind it is functional. To be noted: read-out: ED50 (the source's name).
The next data set deals with MCF7. As to the kind of experiment: Cytotoxicity against human MCF7 cells. In kind it is functional. To be noted: read-out: ED50 (the source's name).
Data set [1] relates to Agrobacterium tumefaciens. As to the kind of experiment: Antitumor activity against Agrobacterium tumefaciens-induced crown gall tumor in potato tubers at by potato disk assay. In kind it is functional.
The subject of data set [2] is Diabrotica undecimpunctata. As to the kind of experiment: Insecticidal activity against Diabrotica undecimpunctata assessed as mortality at 12 ppm. In kind it is functional.
In a further data set the test system is Spodoptera eridania. As to the kind of experiment: Insecticidal activity against Spodoptera eridania assessed as mortality at 12 ppm. In kind it is functional.
In another data set the test system is Tetranychus urticae. As to the kind of experiment: Insecticidal activity against Tetranychus urticae assessed as mortality at 12 ppm. In kind it is functional.
The next data set concerns Aphis gossypii. As to the kind of experiment: Insecticidal activity against Aphis gossypii assessed as mortality at 12 ppm. Format: functional.

≈ marks a conversion by molar mass, not a printed value.

By LC50 is commonly meant the concentration lethal to half of the exposed cells or organisms. For `CCCCC/C=C\C/C=C\CCCC(C)=O`, the median lethal concentration (LC50) in the data set with Artemia salina amounted to 2.9 ppm. For the same compound, the EC50 in the data set on A549, in the data set with HT-29 and in the data set with MCF7 was > 10 µg/mL in each case.
On to `CC/C=C\C/C=C\C/C=C\CCCC(C)=O`, for which the LC50 with Artemia salina is 3 ppm. For the same compound, the EC50 in the data set with A549 is > 10 µg/mL; in the data set on HT-29, 3.01 µg/mL (≈ 13.7 µM); in the data set with MCF7 it was 5.15 µg/mL (≈ 23.4 µM).
Taken in the same sequence, the figures for `C=C[C@](C)(O)CC/C=C(/C)CCC=C(C)C` were 5.75 ppm, > 10 µg/mL, > 10 µg/mL and > 10 µg/mL.
Taken in the same sequence, the figures for `COc1cccc2c1C(=O)c1c(O)c3c(c(O)c1C2=O)C[C@@](O)(C(=O)CO)C[C@@H]3O[C@H]1C[C@H](N)[C@H](O)[C@H](C)O1` [DOXORUBICIN] were 0.088 ppm, 0.0018 µg/mL (≈ 0.00331 µM), 0.012 µg/mL (≈ 0.0221 µM) and 0.051 µg/mL (≈ 0.0938 µM).
Consider `C=C1OC(=O)/C(=C/CCCCCCCCCCCCCCC)[C@@H]1O` [ISOLINDERANOLIDE], for which the LC50 in the data set with Artemia salina is 0.96 ppm. The “inhibition (INH)” value in [1] is 44.9%. For the same compound, the EC50 is 4.57 µg/mL (≈ 13.6 µM) with A549, 3.07 µg/mL (≈ 9.12 µM) with HT-29 and 3.12 µg/mL (≈ 9.27 µM) in the data set on MCF7. Besides, the Activity in data set [2] is 20%; in the data set on Spodoptera eridania it was 0%; in the data set with Tetranychus urticae, 0%; in the data set with Aphis gossypii it was 0%.
In turn, `C=C1OC(=O)/C(=C/CCCC/C=C\CCCCCCCCC)[C@@H]1O` [ISOLINDERENOLIDE] registered an LC50 with Artemia salina of 0.52 ppm. For the same compound, in data set [1], the “inhibition (INH)” value amounted to 41.4%. The EC50 with A549 came to 3.01 µg/mL (≈ 9 µM); in the data set on HT-29 it was 1.9 µg/mL (≈ 5.68 µM); in the data set on MCF7, 2.58 µg/mL (≈ 7.71 µM). For the same compound, the Activity (in [2]; in the data set on Spodoptera eridania; with Tetranychus urticae; with Aphis gossypii) was 0% throughout.
For the compound `C=C1OC(=O)/C(=C/CCCCCCCCCCCCC)[C@@H]1O` [ISOOBTUSILACTONE A], the LC50 in the data set with Artemia salina amounted to 0.72 ppm. Besides, the EC50 worked out at 3.75 µg/mL (≈ 12.2 µM) in the data set on A549, 2.48 µg/mL (≈ 8.04 µM) in the data set on HT-29 and 2.31 µg/mL (≈ 7.49 µM) with MCF7. The Activity (in data set [2]; in the data set on Spodoptera eridania; in the data set with Tetranychus urticae; in the data set on Aphis gossypii) was 0% throughout.
Turning to `C=CCCCCCCCCC/C=C1/C(=O)OC(=C)[C@H]1O` [ISOOBUTASILACTONE], the LC50 with Artemia salina is reported as 0.065 ppm. For the same compound, the EC50 in the data set with A549 was > 10 µg/mL; in the data set with HT-29, 2.92 µg/mL (≈ 10.5 µM); in the data set on MCF7, 4.6 µg/mL (≈ 16.5 µM). In addition, the Activity (in [2]; in the data set with Spodoptera eridania; in the data set with Tetranychus urticae; in the data set with Aphis gossypii) was 0% throughout.
For `C=C1OC(=O)/C(=C\CCCCCCCCCCCCCCC)[C@@H]1O` [LINDERANOLIDE], the median lethal concentration (LC50) with Artemia salina was 5.23 ppm. The EC50 with A549 turned out to be 0.928 µg/mL (≈ 2.76 µM); with HT-29, 30.5 µg/mL (≈ 90.6 µM); with MCF7, 73.6 µg/mL (≈ 219 µM).
`C=C1OC(=O)/C(=C\CCCCCCCCCCCCC)[C@@H]1O` [OBTUSILACTONE A] registered a 50% lethal concentration (LC50) with Artemia salina of 0.89 ppm. In addition, the EC50 in the data set with A549 was > 10 µg/mL; in the data set with HT-29, 2.93 µg/mL (≈ 9.5 µM); in the data set on MCF7 it was 5.12 µg/mL (≈ 16.6 µM). Moreover, the Activity (in [2]; with Spodoptera eridania; with Tetranychus urticae; in the data set with Aphis gossypii) was 0% each time.
`C=CCCCCCCCCC/C=C1\C(=O)OC(=C)[C@H]1O` [OBTUSILACTONE] gave a median lethal concentration (LC50) in the data set on Artemia salina of 0.035 ppm. The “inhibition (INH)” value in data set [1] stood at 64.2%. Moreover, the EC50 stood at 3.32 µg/mL (≈ 11.9 µM) with A549, 3.26 µg/mL (≈ 11.7 µM) in the data set with HT-29 and 4.58 µg/mL (≈ 16.5 µM) in the data set with MCF7. Further, the Activity (in data set [2]; in the data set on Spodoptera eridania; in the data set with Tetranychus urticae; in the data set on Aphis gossypii) was 0% each time.
